# How the values were obtained:
# [1] = target: cAMP-dependent protein kinase catalytic subunit beta (Rattus norvegicus, UniProt P68182)
# [2] = target: Rho-associated protein kinase 2 (Rattus norvegicus, UniProt Q62868)
# [3] = target: T1, cGMP-dependent protein kinase 1 (Homo sapiens, UniProt Q13976)
# T1 sequence (Q13976 whole entry): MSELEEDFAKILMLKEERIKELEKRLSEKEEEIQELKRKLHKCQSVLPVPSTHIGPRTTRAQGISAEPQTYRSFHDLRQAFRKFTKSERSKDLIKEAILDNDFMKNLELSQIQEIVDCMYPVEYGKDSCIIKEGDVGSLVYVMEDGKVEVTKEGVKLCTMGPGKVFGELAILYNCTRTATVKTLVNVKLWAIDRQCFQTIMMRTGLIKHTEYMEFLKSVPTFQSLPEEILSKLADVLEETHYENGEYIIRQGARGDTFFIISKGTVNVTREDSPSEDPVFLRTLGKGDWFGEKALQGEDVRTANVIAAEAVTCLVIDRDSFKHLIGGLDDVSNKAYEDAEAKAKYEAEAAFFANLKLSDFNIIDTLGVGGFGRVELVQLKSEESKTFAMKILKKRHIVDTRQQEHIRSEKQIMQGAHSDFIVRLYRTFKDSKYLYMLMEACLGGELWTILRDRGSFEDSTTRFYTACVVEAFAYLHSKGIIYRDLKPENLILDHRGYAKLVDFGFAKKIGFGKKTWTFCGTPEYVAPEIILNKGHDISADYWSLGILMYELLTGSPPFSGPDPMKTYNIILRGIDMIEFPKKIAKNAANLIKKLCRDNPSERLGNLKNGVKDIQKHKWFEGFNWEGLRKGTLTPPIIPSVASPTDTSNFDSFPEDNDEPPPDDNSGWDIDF
# [4] = target: Protein kinase C alpha type (Rattus norvegicus, UniProt P05696)
# [5] = target: T2, 1-phosphatidylinositol 4,5-bisphosphate phosphodiesterase beta-1 (Rattus norvegicus, UniProt P10687)
# T2 sequence (P10687 whole entry): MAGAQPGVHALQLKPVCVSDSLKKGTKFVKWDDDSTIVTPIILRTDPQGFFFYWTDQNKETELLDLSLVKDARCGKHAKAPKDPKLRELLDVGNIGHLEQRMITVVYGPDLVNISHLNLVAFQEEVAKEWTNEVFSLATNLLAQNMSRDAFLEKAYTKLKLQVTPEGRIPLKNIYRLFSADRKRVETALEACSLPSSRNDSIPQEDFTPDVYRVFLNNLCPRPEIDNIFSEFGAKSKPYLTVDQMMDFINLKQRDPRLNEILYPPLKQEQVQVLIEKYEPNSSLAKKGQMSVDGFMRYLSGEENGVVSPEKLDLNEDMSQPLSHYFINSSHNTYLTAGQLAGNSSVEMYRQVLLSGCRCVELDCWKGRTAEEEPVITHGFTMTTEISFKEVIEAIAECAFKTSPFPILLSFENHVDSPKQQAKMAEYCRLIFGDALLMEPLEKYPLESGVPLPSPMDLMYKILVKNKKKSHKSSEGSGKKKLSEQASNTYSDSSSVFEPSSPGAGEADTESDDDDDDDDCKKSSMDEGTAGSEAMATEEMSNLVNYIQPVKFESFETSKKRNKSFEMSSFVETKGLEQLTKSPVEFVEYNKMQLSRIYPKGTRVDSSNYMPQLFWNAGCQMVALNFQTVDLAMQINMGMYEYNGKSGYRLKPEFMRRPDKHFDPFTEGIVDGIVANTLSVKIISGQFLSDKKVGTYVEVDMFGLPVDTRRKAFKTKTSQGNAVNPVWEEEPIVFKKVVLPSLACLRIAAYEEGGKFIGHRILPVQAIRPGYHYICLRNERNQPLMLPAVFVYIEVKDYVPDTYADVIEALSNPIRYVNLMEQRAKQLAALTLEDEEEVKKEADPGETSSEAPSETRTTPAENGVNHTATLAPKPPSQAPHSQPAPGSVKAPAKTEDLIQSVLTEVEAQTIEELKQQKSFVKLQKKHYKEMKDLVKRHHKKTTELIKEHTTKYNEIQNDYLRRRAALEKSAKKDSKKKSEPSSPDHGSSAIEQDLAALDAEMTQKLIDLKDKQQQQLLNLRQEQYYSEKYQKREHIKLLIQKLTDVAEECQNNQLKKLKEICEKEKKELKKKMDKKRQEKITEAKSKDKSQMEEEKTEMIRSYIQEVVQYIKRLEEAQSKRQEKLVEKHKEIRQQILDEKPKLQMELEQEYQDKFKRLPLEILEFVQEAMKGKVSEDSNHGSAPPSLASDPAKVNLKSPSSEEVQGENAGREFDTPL
# [6] = target: T3, 1-phosphatidylinositol 4,5-bisphosphate phosphodiesterase delta-4 (Rattus norvegicus, UniProt Q62711)
# T3 sequence (Q62711 whole entry): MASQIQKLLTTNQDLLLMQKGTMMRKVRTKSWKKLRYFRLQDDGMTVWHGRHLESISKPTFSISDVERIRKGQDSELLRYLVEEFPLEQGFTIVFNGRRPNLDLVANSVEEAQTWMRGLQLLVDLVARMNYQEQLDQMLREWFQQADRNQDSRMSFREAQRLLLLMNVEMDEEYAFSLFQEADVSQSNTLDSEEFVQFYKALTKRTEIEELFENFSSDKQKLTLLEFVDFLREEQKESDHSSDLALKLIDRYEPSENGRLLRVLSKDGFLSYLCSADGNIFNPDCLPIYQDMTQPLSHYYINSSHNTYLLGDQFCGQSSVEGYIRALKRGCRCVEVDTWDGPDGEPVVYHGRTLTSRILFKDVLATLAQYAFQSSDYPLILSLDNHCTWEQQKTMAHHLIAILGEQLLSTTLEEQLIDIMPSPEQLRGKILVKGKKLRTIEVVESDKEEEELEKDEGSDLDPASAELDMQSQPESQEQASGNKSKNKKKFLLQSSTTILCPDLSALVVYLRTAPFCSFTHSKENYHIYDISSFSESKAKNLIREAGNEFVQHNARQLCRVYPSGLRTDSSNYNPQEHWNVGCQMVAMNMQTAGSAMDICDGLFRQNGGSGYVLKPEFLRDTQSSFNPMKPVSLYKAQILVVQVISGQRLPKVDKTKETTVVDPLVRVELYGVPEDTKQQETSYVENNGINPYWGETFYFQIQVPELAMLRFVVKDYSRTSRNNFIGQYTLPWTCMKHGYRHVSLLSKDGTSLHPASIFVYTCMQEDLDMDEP
# Sequence of Rho-associated protein kinase 2 (Q62868 whole entry): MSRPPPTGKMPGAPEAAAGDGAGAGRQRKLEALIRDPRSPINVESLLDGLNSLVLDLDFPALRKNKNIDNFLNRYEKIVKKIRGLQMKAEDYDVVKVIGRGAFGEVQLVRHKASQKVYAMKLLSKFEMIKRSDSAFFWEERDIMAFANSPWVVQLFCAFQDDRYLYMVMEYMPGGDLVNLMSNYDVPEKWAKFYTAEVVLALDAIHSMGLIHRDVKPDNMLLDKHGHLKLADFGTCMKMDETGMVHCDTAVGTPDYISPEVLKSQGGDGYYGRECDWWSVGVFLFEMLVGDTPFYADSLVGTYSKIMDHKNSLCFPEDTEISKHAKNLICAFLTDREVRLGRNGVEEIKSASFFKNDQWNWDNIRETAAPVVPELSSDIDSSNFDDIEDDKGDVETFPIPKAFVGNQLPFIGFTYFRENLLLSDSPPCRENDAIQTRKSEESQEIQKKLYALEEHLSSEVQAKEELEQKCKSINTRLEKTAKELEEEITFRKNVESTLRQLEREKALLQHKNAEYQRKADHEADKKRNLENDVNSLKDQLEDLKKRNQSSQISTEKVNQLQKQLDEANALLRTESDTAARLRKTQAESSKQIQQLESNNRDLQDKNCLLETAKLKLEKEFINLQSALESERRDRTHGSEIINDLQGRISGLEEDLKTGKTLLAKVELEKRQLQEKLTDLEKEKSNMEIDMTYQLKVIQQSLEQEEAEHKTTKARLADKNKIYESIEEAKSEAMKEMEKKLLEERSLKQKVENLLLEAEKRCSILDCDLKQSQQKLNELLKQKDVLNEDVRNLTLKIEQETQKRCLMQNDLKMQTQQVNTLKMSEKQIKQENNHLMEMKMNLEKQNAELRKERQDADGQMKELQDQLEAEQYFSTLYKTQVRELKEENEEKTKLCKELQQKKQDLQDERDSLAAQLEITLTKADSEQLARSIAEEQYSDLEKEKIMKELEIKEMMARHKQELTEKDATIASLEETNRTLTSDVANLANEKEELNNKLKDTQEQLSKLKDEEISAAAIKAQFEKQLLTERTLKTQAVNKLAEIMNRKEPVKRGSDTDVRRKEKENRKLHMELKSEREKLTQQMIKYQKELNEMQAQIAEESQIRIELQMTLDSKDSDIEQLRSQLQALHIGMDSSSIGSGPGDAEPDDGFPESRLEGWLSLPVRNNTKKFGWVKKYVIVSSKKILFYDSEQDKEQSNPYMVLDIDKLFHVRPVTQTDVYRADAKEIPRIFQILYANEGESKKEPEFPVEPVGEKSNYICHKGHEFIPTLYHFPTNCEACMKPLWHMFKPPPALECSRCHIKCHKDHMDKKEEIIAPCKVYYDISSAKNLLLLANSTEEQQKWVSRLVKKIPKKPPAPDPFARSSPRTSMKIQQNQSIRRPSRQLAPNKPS
Ki [1] [µM],Ki [2] [µM],Ki [5] [µM],SMILES,Ki [4] [µM],other results
0.05,0.27,–,O=S(=O)(NCCNC/C=C/c1ccc(Br)cc1)c1cccc2cnccc12,–,Ki [3]: 0.5 µM
–,–,5,CCCCCCCCCCCCCCCCCCOC[C@H](COP(=O)([O-])OCC[N+](C)(C)C)OC [CAS_77286-66-9],–,–
25,0.1,–,C[C@@H](N)[C@H]1CC[C@H](C(=O)Nc2ccncc2)CC1 [Y-27632],26,–

# The remaining lines, values behind:
SMILES,Ki [1] [µM],Ki [2] [µM],Ki [5] [µM],Ki [4] [µM],other results
COc1ccc2c(c[n+](C)c3c4cc5c(cc4ccc23)OCO5)c1OC,–,–,–,0.66,–
"NC[C@@H]1O[C@H](O[C@H]2[C@@H](O)[C@H](O[C@@H]3[C@@H](O)[C@H](N)C[C@H](N)[C@H]3O[C@H]3O[C@H](CN)[C@@H](O)[C@H](O)[C@H]3N)O[C@@H]2CO)[C@H](N)[C@@H](O)[C@@H]1O [KDR Kinase Inhibitor, 3]",–,–,5,–,Ki [6]: 5 µM

# Reference: BindingDB's records for doi:10.1124/jpet.105.097303 (Temple University, 2006)
